Measured values reported in patent US20230226227A1, “PROSTATE SPECIFIC MEMBRANE ANTIGEN (PSMA) LIGANDS AND USES THEREOF” (ADVANCED ACCELERATOR APPLICATIONS (ITALY) SRL, priority 2019, published 2023).
Where “and” joins values, the source holds several entries; their conditions need not be identical. Equal entries are not always repeated. Entries after “also recorded” stand apart in the source; their conditions may differ.

What was measured:
[1] = Behavioral Irwin test after single intravenous administration; assay type: in vivo, rat
Procedure: The aim of this study was to evaluate the possible effects of ^175Lu-PSMA-R2, at doses of 0.2, 0.6 and 2.0 mg/kg, on general behavior parameters in the rat after intravenous administration, according to the study design in Table 2.
The following parameters were evaluated: mortality, body weight, clinical signs and Irwin test.
The Irwin test was performed at the following intervals after dosing: 5, 15, 30 minutes and 1, 2 and 24 hours.

[2] = Single dose toxicity study in the rat; assay type: in vivo, Sprague Dawley (SD) rats
Procedure: This study aimed at assessing the toxicity of ^175Lu-PSMA-R2 right after acute intravenous injection of 2 or 4 mg/kg among Sprague Dawley (SD) rats.
Two groups of 30 animals (1:1 male:female ratio) were administered with 2 and 4 mg/kg, respectively. A control group of equal characteristics was treated with the vehicle (Table 5).
Signs of reaction to treatment at all doses were assessed at 30, 120 and 240 min p.i. as well as 24 h later. At Day 2, 10 rats per gender and per group were sacrificed. The remaining 5 animals/gender/group were observed daily over14 days.
Body weight was recorded on the day of treatment group allocation, Day 1 (day of injection), 8 and 15. Food consumption was measured on Day 2 and weekly thereafter. At the end of treatment, urine samples were collected for urinalysis. On Day 2 and 15, blood samples withdrawn at sacrifice were screened for clinical pathologies. After dissection, organs were weighted and tissues were treated for microscopic analyses (over 50 different tissues were analyzed).

[3] = Single dose toxicity study in the minipig; assay type: in vivo, Göttingen minipigs
Source text: A two-week treatment-free period was allowed after administration.
All animals were administrated intravenously. Plasma samples were collected at Day 1 for toxicokinetic analysis.
Mortality, clinical signs, body weight, food consumption, clinical pathology investigations, ophthalmoscopy, ECG evaluations, and macroscopic observations were indexed at necropsy. Then selected organs were weighed and tissues collected.
In addition, plasma samples were collected on Day 1 for toxicokinetic analysis.

[4] = Repeated dose (2 weeks) toxicity and toxicokinetic study in the rat
Procedure: The purpose of this study was to investigate the toxicity of ^175Lu-PSMA-R2 in rats after daily intravenous administration for 2 weeks and recovery from any treatment related effects during a 2-week recovery period (main groups).
The tested doses were 0.13, 0.39 and 1.29 mg/kg/day, that is about 31, 93 and 310 times the PSMA-R2 anticipated human dose.
Each main treatment group consisted of 10 male and 10 female rats. There were additional 5 male and 5 females included to be sacrificed after 2 weeks of recovery in groups 1 and 4. Two satellite groups (low and mid- dose) for toxicokinetics had 9 male and 9 female animals and one group (high dose) included 12 male and 12 female animals. One additional group (control) comprised 3 male and 3 female animals.
In this study, the toxicity and the toxicokinetic profile of ^175Lu-PSMA-R2 were investigated in Sprague Dawley rats after daily intravenous administration for 2 weeks at the dosages of 0.13, 0.39 and 1.29 mg/kg/day.

[5] = Repeated dose (2 weeks) toxicity and toxicokinetic study in the minipig; assay type: in vivo, minipigs; details: for Half-life: mean value per sex
Procedure: The tested doses are: 0.058, 0.175 and 0.583 mg/kg/day, that is about 14, 42 and 140 times the PSMA-R2 anticipated human dose.
Each group included 3 male and 3 female minipigs. Groups 1 and 4 included 2 additional animals per gender to be sacrificed after 2 weeks of recovery.
All animals were dosed intravenously once a day for 14 consecutive days.

[6] = tested on: Salmonella typhimurium TA1535, TA1537, TA98, TA100; assay: Bacterial mutation assay, Salmonella typhimurium; assay type: cell-based
Procedure: (§1) The test item ^175Lu-labelled PSMA-R2 solution was examined for the ability to induce gene mutations in tester strains of Salmonella typhimurium and Escherichia coli, as measured by reversion of auxotrophic strains to prototrophy. The five tester strains TA1535, TA1537, TA98, TA100 and WP2 uvrA were used. Experiments were performed both in the absence and presence of metabolic activation, using liver S9 fraction from rats pre-treated with phenobarbital and 5,6-benzoflavone.
(§2) The test item was used as a solution in sodium acetate buffer and all concentrations in this report are expressed in terms of active ingredient. The test item ^175Lu-labelled PSMA-R2 solution was assayed in the toxicity test at a maximum feasible concentration of 1000 µg/plate and at four lower concentrations spaced at approximately half-log intervals: 316, 100, 31.6 and 10.0 µg/plate.
(§3) On the basis of the results obtained in the preliminary toxicity test, in the Main Assay, using the plate incorporation method, the test item was assayed with all tester strains at the following dose levels: 1000, 500, 250, 125 and 62.5 µg/plate. […] Since a clear negative result was obtained, no further experiment was undertaken.

[7] = tested on: Escherichia coli WP2 uvrA; assay: Bacterial mutation assay, Escherichia coli; assay type: cell-based
Procedure: as §1, §2, §3

[8] = Plasma protein binding by ultrafiltration, human plasma; assay type: in vitro ADME; details: for fu (%) fraction unbound: human plasma
Procedure: (§4) Plasma protein binding of PSMA-R2 and ^175Lu-PSMA-R2 has been determined by ultrafiltration method, after incubation of the compounds in human, mouse, rat and minipig plasma at two different concentrations: 1 and 5 µg/mL.

[9] = Plasma protein binding by ultrafiltration, rat plasma; assay type: in vitro ADME
Procedure: as §4

[10] = Plasma protein binding by ultrafiltration, minipig plasma; assay type: in vitro ADME
Procedure: as §4

[11] = single iv 0.175, 0.58, 1.75 mg/kg
[12] = daily iv 0.058, 0.175, 0.583 mg/kg/day for 14 days
[13] = 10.0-1000 µg/plate, absence or presence of S9
[14] = 62.5-1000 µg/plate, absence or presence of S9
[15] = absence or presence of S9 metabolism

Structure (SMILES): O=C(O)CCC(NC(=O)NC(CCCCN(Cc1ccc(Br)cc1)C(=O)CCCCCNC(=O)CN1CCN(CC(=O)O)CCN(CC(=O)O)CCN(CC(=O)O)CC1)C(=O)O)C(=O)O.[175Lu] (stereo not drawn) [^175Lu-PSMA-R2]
- Clinical signs ([1]; 6-day observation period): No clinical signs were observed
- Mortality ([1]; single iv 0.2, 0.6 and 2.0 mg/kg): No deaths occurred
- Effects on behavioral, neurologic or autonomic parameters (Irwin) ([1]; single iv 0.2, 0.6 and 2.0 mg/kg, up to 24 h post-dose): did not induce any effects; also recorded: No effects
- Mortality ([2]; high dose (4 mg/kg), 30 min after dosing, no cause of death established): One death
- Clinical signs immediately after dosing ([2]; high dose group, dead animal and 5 other animals): Only decreased activity was noted
- Toxicity signs ([2]; single iv 2 and 4 mg/kg): did not induce toxicity signs; also recorded: No signs of toxicity observed
- Hematology and clinical chemistry ([3]; high dose group (1.75 mg/kg)): Some changes in hematology and clinical chemistry were observed in some animals
- Organ weights, macroscopic or microscopic changes [3, 11]: No changes in the organ weights and no treatment-related macroscopic or microscopic changes
- Physical signs, ocular findings, electrocardiographic abnormalities [3, 11]: No treatment-related physical signs, ocular findings, nor electrocardiographic abnormalities
- Toxicity signs ([3]; single iv 0.175, 0.583 and 1.75 mg/kg): did not induce signs of toxicity; also recorded: No relevant treatment-related toxicity signs
- Accumulation after daily administration ([4]; Day 1 to Day 14): No accumulation
- Half-life ([4]; both sexes and all dose levels): 24 to 48 min
- NOAEL (No Observed Adverse Effect Level) ([4]; daily iv for 2 weeks): 1.29 mg/kg/day
- Toxic / treatment-related effects in treated groups compared to controls ([4]; daily iv for 2 weeks): No evidence of treatment-related effects
- Bodyweight and food consumption ([4]; rat, in vivo): unaffected by treatment
- Clearance, dose dependence ([4]; rat, in vivo): dose-independent
- Clinical pathology examination ([4]; rat, in vivo): No findings of toxicological relevance
- Daily clinical observation ([4]; rat, in vivo): No signs of toxicological significance
- Dose proportionality of exposure ([4]; rat, in vivo): approximately dose proportional
- NOAEL as multiple of the foreseen human dose ([4]; rat, in vivo): 310 times
- Necropsy, organ weights or histopathological examination ([4]; rat, in vivo): No evidence of treatment-related effects
- Ophthalmoscopy examination ([4]; rat, in vivo): No anomalies related to treatment
- Toxic / treatment-related effects in treated groups compared to controls ([4]; rat, in vivo, iv): no toxic effects
- Half-life ([5]; Day 1, female minipigs): 37.8 min
- Half-life ([5]; Day 1, male minipigs): 42.6 min
- Accumulation after daily administration ([5]; Day 1 to Day 14): No relevant accumulation
- Clinical pathology, gross pathology, terminal body weight, absolute and relative organ weight ([5]; any dose): did not reveal notable or treatment-related changes
- Histopathology ([5]; any dose): no histopathology treatment-related modifications
- Body weights and food intake [5, 12]: unaffected by the treatment
- Ophthalmoscopy and electrocardiographic examination [5, 12]: No treatment-related abnormalities
- Physical examination [5, 12]: did not show appreciable changes
- NOAEL ([5]; daily iv for 2 weeks): 0.583 mg/kg/day and 0.58 mg/kg/day
- Increase in systemic exposure (Cmax and AUC0-tlast) with dose ([5]; minipig, in vivo): approximately dose-proportional
- Plasma clearance, dose dependence ([5]; minipig, in vivo): dose-independent
- Treatment-related effects in treated groups compared to controls ([5]; once a day for 2 weeks): No evidence of treatment-related effects
- Toxicity and revertant numbers, preliminary toxicity test [6, 13]: Neither toxicity, nor relevant increases in revertant numbers
- Toxicity and revertant numbers, Main Assay (plate incorporation) [6, 14]: Neither toxicity, nor relevant increases in revertant numbers
- Induction of reverse mutation (conclusion) [6, 15]: does not induce reverse mutation
- Toxicity and revertant numbers, preliminary toxicity test [7, 13]: Neither toxicity, nor relevant increases in revertant numbers
- Toxicity and revertant numbers, Main Assay (plate incorporation) [7, 14]: Neither toxicity, nor relevant increases in revertant numbers
- Induction of reverse mutation (conclusion) [7, 15]: does not induce reverse mutation
- fu (%) fraction unbound ([8]; 1 µg/mL): 43.9± 5.1%
- fu (%) fraction unbound ([8]; 5 µg/mL): 45.0 ± 9.6%
- Plasma protein binding, assessment in words ([8]; human, plasma): non-highly bound
- fu (%) fraction unbound ([9]; 1 µg/mL): 37.4 ± 4.9%
- fu (%) fraction unbound ([9]; 5 µg/mL): 59.8 ± 4.4%
- fu (%) fraction unbound ([10]; 1 µg/mL): 41.1 ± 4.2%
- fu (%) fraction unbound ([10]; 5 µg/mL): 46.1 ± 12.5%
